Laboratory results from US20130252951A1, “7-HYDROXY-PYRAZOLO[1,5-A] PYRIMIDINE COMPOUNDS AND THEIR USE AS CCR2 RECEPTOR ANTAGONISTS” (Proximagen Limited, priority 2010, published 2013).

Target: human CCR2 (Homo sapiens, UniProt P41597)
Assay: CCR2 functional calcium assay (FLIPR calcium flux, hMCP-1 challenge)
Type: cell-based
Parameters: expressed in transfected cells; host or cells: HEK293 EBNA cells
Conditions: HEK293 EBNA cells transfected with human CCR2, hMCP-1 challenge; read-out: Functional CCR2 fKi
Excerpt: The CCR2 receptor couples through the Gi/Gq signaling pathway and results in activation of calcium mobilization. The functional activity of test compounds was routinely tested by measuring the ability of compounds to antagonize CCR2 activity in a dose dependent manner, in HEK293 EBNA cells transfected with the human CCR2 receptor (hMCP-1 challenge), using a calcium flux Fluorescent Imaging Plate Reader FLIPR assay. Non-transfected HEK293 EBNA cells were used as control of non-specific response.
Briefly, test compounds were dissolved in dimethyl sulfoxide (DMSO) to a concentration of 10 mM and stored in matrix screenmate racks. The required amount of compound was transferred to 96-well compound plates on the day of assay and diluted in assay buffer to the required final concentration; dose-response measurements were assayed by making 1:3 serial dilutions to produce 10 point curves. The compounds were then transferred to 384-well assay plates ready for use. Top concentrations were adjusted depending on the potency of the compounds with a typical concentration range of 30 μM to 0.5 nM being used. The assay buffer used was HBSS buffer supplemented with 20 mM HEPES and 0.1% BSA, pH7.4. The loading/wash buffers were the same as the assay buffer.
Cells were suspended in culture medium at a density of 10000 cells/50 μl (the cell culture media composition was DMEM high glucose supplemented with 10% dialyzed FBS, 250 μg/ml Geneticin, and 400 μg/ml Hygromycin B), transferred to 384-well black/clear Costar plates (Costar #3712) (50 μl/well) and incubated at 37° C., in a 5% CO2/95% air humidified incubator for 16 h. The cells were washed with assay buffer at 37° C. using the Biotek ELx 405, washing 3 times, leaving 20 μl buffer in the well. 20 μl Fluo-4 (Fluo-4 stock solution (1 mM) was prepared by dissolving one vial of Fluo-4 (50 μg) in 45 μl of pluronic acid (240 mg/ml in DMSO). This stock solution of Fluo-4 was then diluted 250 times with loading buffer to give a Fluo-4 concentration of 4 μM. The dye solution (used within 2 h and kept away from light) was added to each well using a repeating multichannel pipette; the cells were then incubated at 37° C. for 60 min. Following the incubation, cells were washed in assay buffer at 37° C. using the Biotek ELx 405, washing 3 times, leaving 40 μl in each well and incubated for 10 min at 37° C. before use. A combined agonist/antagonist protocol was used. Compound (antagonist) was added to the cell plate using the FLIPR. Basal fluorescence was recorded every second for 10 seconds prior to compound addition (10 μl) and fluorescence recorded every second for 1 minute then every 6 seconds for a further 1 minute. Agonist (MCP-1) was then added using the FLIPR and fluorescence recorded as described above.
The positive control (agonist) was human recombinant MCP-1 which was stored as a stock concentration of 10 μM in distilled water and stored at −20° C. (maximal response: 30 nM; EC50 dose: 3-5 nM). The reference compound (antagonist) was RS102895 which was used as a 10 mM DMSO solution and stored at −20° C.
FLIPR responses were measured as peak minus basal fluorescence intensity and were expressed as a percentage of EC50 MCP-1 challenge. Curve-fitting and parameter estimation were carried out using GraphPad Prism 4.0 (GraphPad Software Inc., San Diego, Calif.).

human CCR2, sequence (P41597 whole entry): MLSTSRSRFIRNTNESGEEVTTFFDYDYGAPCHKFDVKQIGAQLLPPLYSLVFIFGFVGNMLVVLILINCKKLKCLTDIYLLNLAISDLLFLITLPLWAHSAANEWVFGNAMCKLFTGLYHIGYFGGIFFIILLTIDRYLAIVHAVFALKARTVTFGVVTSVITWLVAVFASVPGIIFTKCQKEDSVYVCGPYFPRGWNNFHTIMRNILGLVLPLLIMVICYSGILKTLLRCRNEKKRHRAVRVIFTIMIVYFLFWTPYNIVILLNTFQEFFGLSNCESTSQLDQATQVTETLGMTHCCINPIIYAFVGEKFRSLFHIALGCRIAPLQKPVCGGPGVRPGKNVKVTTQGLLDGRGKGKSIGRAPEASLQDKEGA

Ki [nM]	Structure (SMILES)
10 to 100	CC(C)OC(=O)c1nc2ccnn2c(O)c1Cc1cccc(C(F)(F)F)c1 [Example 86, Propan-2-yl7-hydroxy-6-{[3-(trifluoromethyl)phenyl]methyl}pyrazolo[1,5-a]pyrimidine-5-carboxylate]
100 to 1000	Cc1nc2c(C(=O)NC[C@@H]3CCCO3)cnn2c(O)c1Cc1ccc(Cl)cc1 (stereo in doubt) [Example 110, 6-[(4-Chlorophenyl)methyl]-7-hydroxy-5-methyl-N-(oxolan-2-ylmethyl)pyrazolo-[1,5-a] pyrimidine-3-carboxamide]
< 10	Oc1c(Cc2ccc(F)c(Cl)c2)c(C2CC2)nc2ccnn12 [Example 28, 6-[(3-Chloro-4-fluorophenyl)methyl]-5-cyclopropylpyrazolo[1,5-a]pyrimidin-7-ol]
< 10	CC(C)c1nc2ccnn2c(O)c1Cc1cc(F)cc(Cl)c1 [Example 39, 6-[(3-Chloro-5-fluorophenyl)methyl]-5-(propan-2-yl)pyrazolo[1,5-a]pyrimidin-7-ol]
100 to 1000	Cc1nc2c(C(=O)NC[C@H]3CCCO3)cnn2c(O)c1Cc1ccc(Cl)cc1 [Example 101, 6-[(4-Chlorophenyl)methyl]-7-hydroxy-5-methyl-N-[(2R)-oxolan-2-ylmethyl]-pyrazolo[1,5-a]pyrimidine-3-carboxamide]
100 to 1000	Oc1c(Cc2ccc(Cl)cc2)c(CN2CCOCC2)nc2ccnn12 [Example 91, 6-[(4-Chlorophenyl)methyl]-5-(morpholin-4-ylmethyl)pyrazolo[1,5-a]pyrimidin-7-ol]
100 to 1000	Cc1nc2c(C)cnn2c(O)c1Cc1ccc(Cl)cc1 [Example 57, 6-[(4-Chlorophenyl)methyl]-3,5-dimethyl-pyrazolo[1,5-a]pyrimidin-7-ol]
10 to 100	Oc1c(Cc2ccc(OC(F)(F)F)cc2)c(C2CC2)nc2ccnn12 [Example 19, 5-Cyclopropyl-6-{[4-(trifluoromethoxy)-phenyl]methyl}pyrazolo[1,5-a]pyrimidin-7-ol]
100 to 1000	Cc1nc2c(C(=O)NCCc3ccccc3)cnn2c(O)c1Cc1ccc(Cl)cc1 [Example 105, 6-[(4-Chlorophenyl)methyl]-7-hydroxy-5-methyl-N-(2-phenylethyl)pyrazolo[1,5-a]pyrimidine-3-carboxamide]
< 10	CC(C)OC(=O)c1nc2ccnn2c(O)c1Cc1ccc(F)c(Cl)c1 [Example 87, Propan-2-yl6-[(3-chloro-4-fluorophenyl)methyl]-7-hydroxypyrazolo[1,5-a]pyrimidine-5-carboxylate]
100 to 1000	Cc1noc(Cc2nc3ccnn3c(O)c2Cc2ccc(Cl)cc2)n1 [Example 98, 6-[(4-Chlorophenyl)methyl]-5-[(3-methyl-1,2,4-oxadiazol-5-yl)methyl]pyrazolo[1,5-a]-pyrimidin-7-ol]
< 10	Oc1c(Cc2ccc(Cl)cc2)c(C2CCC2)nc2ccnn12 [Example 44, 6-[(4-Chlorophenyl)methyl]-5-cyclobutyl-pyrazolo[1,5-a]pyrimidin-7-ol]
10 to 100	Cc1nc2ccnn2c(O)c1Oc1cccc(F)c1 [Example 5, 6-(3-Fluorophenoxy)-5-methylpyrazolo[1,5-a]pyrimidin-7-ol]
< 10	CCc1nc2ccnn2c(O)c1Cc1cc(F)cc(C(F)(F)F)c1 [Example 4, 5-Ethyl-6-{[3-fluoro-5-(trifluoromethyl)phenyl]methyl}pyrazolo[1,5-a]pyrimidin-7-ol]
< 10	CCOC(=O)c1nc2ccnn2c(O)c1Cc1ccc(Cl)c(F)c1 [Example 74, Ethyl 6-[(4-chloro-3-fluorophenyl)methyl]-7-hydroxy pyrazolo[1,5-a]pyrimidine-5-carboxylate]
< 10	CCc1nc2ccnn2c(O)c1Cc1cc(F)cc(F)c1 [Example 12, 6-[(3,5-difluorophenyl)methyl]-5-ethyl-pyrazolo[1,5-a]pyrimidin-7-ol]
< 10	Oc1c(Cc2ccc(Cl)c(F)c2)c(C2CC2)nc2ccnn12 [Example 27, 6-[(4-Chloro-3-fluorophenyl)methyl]-5-cyclopropylpyrazolo[1,5-a]pyrimidin-7-ol]
